Consider 2 compounds from patent US6518012B1, “Method for regulating the expression of MHC antigens and CD40 by inhibitors of histone deacetylation” (Health Research, Inc., priority 1999, dated 2003).

One data set has as its system CIITA mRNA. The data set is described as follows: CIITA mRNA by RT-PCR and real-time PCR in mouse tumor cells Colon 26 and J558. The note with it: for CIITA fold increase / expression of CIITA: Colon 26; for CIITA fold increase: real-time PCR; for expression of CIITA: standard RT-PCR at 35 cycles; for CIITA mRNA activation: titration with different concentrations of TSA for 12 hours, RT-PCR and real-time PCR. It is filed as cell-based. How it is done:
To determine the effect of DAIs on HLA-DRα mRNA, cytoplasmic RNA was isolated from untreated and treated human trophoblast cell line JAR using standard techniques (RNeasy System from Qiagen). Standard PCR was performed using primers for DR and CIITA (Murphy et al., 1998, Reprod Dev., Chin et al., 1994, Immunity 1:687-697). Other primers used included human and mouse GAPDH (Clontech) and forward primer 5′-[…]-3′ (SEQ ID NO:25) and reverse primer 5′-[…]-3′ (SEQ ID NO:26) for mouse CIITA. PCR products were amplified with GOLD Taq for 10 min at 95° C., then 95° C. for 30 sec, 60° C. for 60 sec (25-45 cycles), then an extension at 60° C. for 10 min.
In order to obtain more quantitative information on fold changes in DR and CIITA after treatment with the deacetylase inhibitors, a real time fluorescence technique capable of quantitating low copy numbers of transcripts was carried out as follows. Oligonucleotide primers and TaqMan 5′-6-FAM and 3′-TAMRA-labeled probes were synthesized in the RPCI Biopolymer Facility. Primer and probe sequences are listed under Sequence Listing and also in FIG. 9. Sequences were designed using standard software (PrimerExpress software, PE Biosystems) except for human GAPDH.
Realtime PCR reactions contained TaqMan Universal PCR Master Mix (PE Biosystems), primers at 300 nM, and probes at optimal concentrations (150-225 nM depending on gene). Reactions were carried out on an ABI PRISM 7700 Sequence Detection System (PE Biosystems). Cycling conditions were 50° C. for 2 min, 95° C. for 10 min, then 60 cycles of 95° C. for 15 sec, 60° C. for 1 min. PCR samples were run in triplicate. The detection system and quantitative PCR was carried out as described by Williamson et al. (1995, Genet Res. 65:83-93). The threshold cycle number CT corresponded to the cycle number, at which the fluorescent emission reaches 10 standard deviations above the mean fluorescent emission, measured during the early ‘baseline’ cycles of the PCR. The CT values for triplicates were averaged and normalized to GAPDH levels. […] In such cases, in order to calculate a minimum fold change for other samples in the same group, the CT value was arbitrarily set at 40. […] Assuming reverse transcription efficiencies were approximately the same for each sample, relative amounts of mRNA using the comparative CT method. Fold changes in mRNA levels were calculated as 2^x where x=the difference between normalized CT values of the control and experimental samples.
To determine if the effect of DAIs on MHC class II was manifested in other tumors and in different species, the effect of TSA was tested on four commonly used mouse tumor models: the SaI fibrosarcoma, the Colon 26 adenocarcinoma, the J558 plasmacytoma and the P815 mastocytoma. TSA induced class II in all four mouse tumors examined, while the effects of IFNγ were variable (FIG. 4). Data presented for each cell line represents optimal incubation time and concentration of TSA and is compared with 100 U/ml of IFNγ at the same time point. Numbers over bars represents fold changes. […] Colon 26 and J558 that differed strikingly in their reactivity to IFNγ were selected for further evaluation. RT-PCR and real time PCR was used to examine induction of CIITA and IAα by TSA and IFNγ. A20, a constitutively positive B cell line was used as a positive control. The results are shown in FIGS. 5A-D. The numbers over bars represent fold changes. […] Since the classical IFNγ inducible genes IRF-1 and GBP as well as MHC class I mRNA were not induced by IFNγ in J558 (data not shown), this cell line may have a signaling defect in the IFNγ pathway. Unexpectedly however, and unlike either the MC or Colon 26 cells, TSA induced both CIITA (102-fold) and Iα (537-fold) in J558 as shown in FIGS. 5B and 5D.

Data set [1] concerns MHC class II protein on the cell surface. The data set is described as follows: Cell surface MHC class II protein by flow cytometry on SK-N-MC. In kind it is cell-based, human. The note with it: for expression of MHC class II protein on the cell surface: flow cytometry, 50 nM TSA for 48 hours, IFNγ 100 U/ml same time. For orientation: In flow cytometry, cells or beads pass a laser one at a time.

As for `CC(/C=C/C(=O)NO)=C\[C@@H](C)C(=O)c1ccc(N(C)C)cc1` [TSA, Trichostatin A], in the data set on CIITA mRNA, the CIITA fold increase result was “absence” and the “expression of CIITA” value was “not detected”. The CIITA fold induction in the data set on CIITA mRNA (J558, RT-PCR and real-time PCR (FIGS. 5B and 5D)) is listed as 102 fold. Besides, the “CIITA mRNA activation” value with CIITA mRNA (J558) is “induced”. The “cells positive for class II expression” value in data set [1] (TSA concentration used in FIG. 8 (50 nM for 48 hours)) amounted to 29%. In data set [1], the “expression of MHC class II protein on the cell surface” value is recorded as “significantly induced”.

On to “IFNγ: gamma-interferon, cytokine used as comparator at 100 U/ml”, for which, in the data set with CIITA mRNA, the CIITA fold increase turned out to be 20 fold and the “expression of CIITA” value is reported as “induced”. The “CIITA mRNA activation” value in the data set on CIITA mRNA (J558) is “failed to activate”. The “expression of MHC class II protein on the cell surface” value in data set [1] was “did not induce”.
